Measured values as given in patent US8318792B2, “Therapeutic agent for amyotrophic lateral sclerosis” (Nippon Medical School Foundation, priority 2006, dated 2012).

Assays:
G1H-G93A transgenic mice [1] = experiment: Clinical symptomatological evaluation (day of onset, survival period, disease period, stage periods); format: in vivo, mouse; settings: for day of onset / disease period / survival period / time period of clinical symptomatological stage 1 / time period of clinical symptomatological stage 2 / time period of clinical symptomatological stage 3 / time period of clinical symptomatological stage 4 / time period of clinical symptomatological stage 5: average±SD
Experimental: 1) The procedure of concentration adjustment, and the amount and the procedure of administration of the compound (a) were as described below. As a base, 0.5% methylcellulose is prepared. 5 mg of the compound (a) is pulverized in an agate mortar, and then a small amount of 0.5% methylcellulose is added to form a complete suspension. Subsequently, a small amount of 0.5% methylcellulose is added gradually, so that finally 5 mg of the compound (a) is suspended in 10 mL of 0.5% methylcellulose. A sample of 5 mg of compound (a)/10 mL of 0.5% methylcellulose (5 mg/10 mL) was prepared by the above-described procedure, and thus the compound (a) was orally administered once a day in a dose of 5 mg per kg of the mouse body weight (5 mg/kg).
As the experimental animal, male transgenic mice over-expressing a high copy number (25 copies) of mutated human SOD1 gene with a G93A point mutation, i.e., B6SJL-TgN [SOD1-G93A]1Gur (G1H-G93A transgenic mice, JR2726; Hemizygote) (Gurney M E, et al., Science, 264, 1772-1775, 1994), were purchased from Jackson Laboratory (Bar Harbor, USA) and used. At the same time, wild-type male mice from the same litter, B6SJL-TgN[SOD1-G93A]1Gur (Wild-type), were also purchased from Jackson Laboratory and used.
The mice were subjected to a clinical symptomatological evaluation everyday. The clinical symptomatological evaluation was performed from one week after the arrival from Jackson Laboratory. […] The day of onset, the survival period and the disease period were indicated by the number of days. In regard to the indication of the number of days of the disease period, one day (one disease day) corresponds to within 24 hours from the onset (the “onset” is determined by the observation of the clinical symptomatological evaluation stage 1), and two days (two disease days) corresponds to more than 24 hours after and within 48 hours from the onset. Subsequent disease days after the onset were determined in the same manner.
The mice were divided into seven experimental groups, to which a placebo, the compound (a), compound (b), compound (c) or allopurinol was administered. That is, the seven groups consist of: an experimental group administered with placebo; a treatment experimental group administered with compound (a) before onset; a treatment experimental group administered with compound (a) after onset; a treatment experimental group administered with compound (b) before onset; a treatment experimental group administered with compound (c) before onset; a treatment experimental group administered with compound (c) after onset; and a treatment group administered with allopurinol before onset. Details of the respective groups will be described in the following.
Ten G1H-G93A transgenic mice were used. From the 80th day after birth, 5 mg/kg of the compound (a) was orally administered everyday. […]
Ten G1H-G93A transgenic mice were used. From the 80th day after birth, 5 mg/kg of the compound (b) was orally administered everyday.
Ten G1H-G93A transgenic mice were used. From the 80th day after birth, 5 mg/kg of the compound (c) was orally administered everyday. […]
Ten G1H-G93A transgenic mice were used. From the 80th day after birth, 5 mg/kg of allopurinol was orally administered everyday.
In regard to the results of the clinical symptomatological evaluation, the day of onset, the survival period (days taken to show quadriplegia and to reach the moribund state), the disease period (days taken to show quadriplegia and to reach the moribund state, from the day of onset), and the time periods for the respective stages of the clinical symptomatological evaluation, were indicated by the average±standard deviation. In regard to the results of the exercise tolerance test, the score values of the respective exercise tolerance tests, including the extension reflex test, inclined plane test, footprint test, rotarod test and beam balance test, were indicated by the average±standard deviation. […]

G1H-G93A transgenic mice [2] = experiment: Exercise tolerance test: extension reflex test; format: in vivo, mouse; settings: for Extension reflex test score: 5 mg/kg oral daily from 80th day (before onset), score 0-2
Experimental: The following five kinds of exercise tolerance tests were conducted every fifth day from the 70th day after birth to evaluate the ability to exercise in the respective exercise tolerance tests. That is, the days for the exercise tolerance tests were every fifth days, such as the 70th day, 75th day, 80th day, 85th day and so on, after birth. The exercise tolerance tests were conducted throughout the survival period, and the post-mortem evaluation was based on the definitions of the following five kinds of exercise tolerance tests.
As for extension reflex, extension of the hindlimbs is normally observed when a mouse is suspended in the air by its tail.
The evaluation of extension reflex test of the mice was performed based on the following criteria: Score 0=Extension reflex is recognized in both of the hindlimbs; Score 1=Extension reflex is recognized only one hindlimb; and Score 2=Extension reflex is not recognized in both of the hindlimbs. The post-mortem evaluation of the extension reflex test is defined as score 2.

[3] = 5 mg/kg oral daily from 80th day after birth (before onset), Mann-Whitney's U test, log-rank test
[4] = 5 mg/kg oral daily from the day of onset (after onset), Mann-Whitney's U test, log-rank test
[5] = 5 mg/kg oral once a day from 80th day after birth (before onset)
[6] = 5 mg/kg oral once a day from the onset (after onset)

Cc1nc(-c2ccc(OCC(C)C)c(C#N)c2)sc1C(=O)O [compound (c), 2-[3-cyano-4-(2-methylpropoxy)phenyl]-4-methyl-5-thiazolecarboxylic acid]
time periods for the respective stages in comparison to placebo group (G1H-G93A transgenic mice [1]; 5 mg/kg oral daily from 80th day after birth (before onset), Mann-Whitney's U test): extended period of the respective stages with significant difference | disease period extending effect in comparison to placebo group (G1H-G93A transgenic mice [1]; [3]): significant extension of the disease period | onset delaying effect in comparison to placebo group (G1H-G93A transgenic mice [1]; [3]): significant delaying of the day of onset | survival period extending effect in comparison to placebo group (G1H-G93A transgenic mice [1]; [3]): significant extension of the survival period | time periods for the respective stages in comparison to placebo group (G1H-G93A transgenic mice [1]; 5 mg/kg oral daily from the day of onset (after onset), Mann-Whitney's U test): extended period of stage 3 (P<0.05, Mann-Whitney's U test) and stage 4 (P<0.05, Mann-Whitney's U test) with significant differences | disease period extending effect in comparison to placebo group (G1H-G93A transgenic mice [1]; [4]): disease period extending effect | survival period extending effect in comparison to placebo group (G1H-G93A transgenic mice [1]; [4]): survival period extending effect | day of onset (G1H-G93A transgenic mice [1]; [5]): 112.0 ± 4.6 days | disease period (G1H-G93A transgenic mice [1]; [5]): 25.4 ± 3.2 days | survival period (G1H-G93A transgenic mice [1]; [5]): 136.4 ± 3.3 days | time period of clinical symptomatological stage 1 (G1H-G93A transgenic mice [1]; [5]): 7.5±0.9 days | time period of clinical symptomatological stage 2 (G1H-G93A transgenic mice [1]; [5]): 6.7±1.2 days | time period of clinical symptomatological stage 3 (G1H-G93A transgenic mice [1]; [5]): 5.4±1.1 days | time period of clinical symptomatological stage 4 (G1H-G93A transgenic mice [1]; [5]): 3.9±1.1 days | time period of clinical symptomatological stage 5 (G1H-G93A transgenic mice [1]; [5]): 1.9±0.3 days | day of onset (G1H-G93A transgenic mice [1]; [6]): 100.7 ± 4.3 days | disease period (G1H-G93A transgenic mice [1]; [6]): 24.2 ± 3.2 days | survival period (G1H-G93A transgenic mice [1]; [6]): 123.9 ± 3.2 days | time period of clinical symptomatological stage 1 (G1H-G93A transgenic mice [1]; [6]): 7.6±1.2 days | time period of clinical symptomatological stage 2 (G1H-G93A transgenic mice [1]; [6]): 6.2±0.8 days | time period of clinical symptomatological stage 3 (G1H-G93A transgenic mice [1]; [6]): 5.4±1.1 days | time period of clinical symptomatological stage 4 (G1H-G93A transgenic mice [1]; [6]): 3.5±0.5 days | time period of clinical symptomatological stage 5 (G1H-G93A transgenic mice [1]; [6]): 1.5±0.5 days | Extension reflex test score (G1H-G93A transgenic mice [2]; 70th day after birth, 5 mg/kg): 0.0±0.0 | Extension reflex test score (G1H-G93A transgenic mice [2]; 75th day after birth, 5 mg/kg): 0.0±0.0 | Extension reflex test score (G1H-G93A transgenic mice [2]; 80th day after birth, 5 mg/kg): 0.0±0.0 | Extension reflex test score (G1H-G93A transgenic mice [2]; 85th day after birth, 5 mg/kg): 0.0±0.0 | Extension reflex test score (G1H-G93A transgenic mice [2]; 90th day after birth, 5 mg/kg): 0.0±0.0 | Extension reflex test score (G1H-G93A transgenic mice [2]; 95th day after birth, 5 mg/kg): 0.0±0.0 | Extension reflex test score (G1H-G93A transgenic mice [2]; 100th day after birth, 5 mg/kg): 0.0±0.0 | Extension reflex test score (G1H-G93A transgenic mice [2]; 105th day after birth, 5 mg/kg): 0.0±0.0 | effect in extension reflex test as compared to placebo group (G1H-G93A transgenic mice [2]; 105th, 110th, 115th and 120th day, 5 mg/kg oral daily from 80th day after birth, Mann-Whitney's U test): significant effects | Extension reflex test score (G1H-G93A transgenic mice [2]; 110th day after birth, 5 mg/kg): 0.1±0.3 | Extension reflex test score (G1H-G93A transgenic mice [2]; 115th day after birth, 5 mg/kg): 0.5±0.5 | Extension reflex test score (G1H-G93A transgenic mice [2]; 120th day after birth, 5 mg/kg): 1.1±0.6 | Extension reflex test score (G1H-G93A transgenic mice [2]; 125th day after birth, 5 mg/kg): 1.7±0.5 | Extension reflex test score (G1H-G93A transgenic mice [2]; 130th day after birth): 2.0 ± 0.0 | Extension reflex test score (G1H-G93A transgenic mice [2]; 135th day after birth): 2.0 ± 0.0 | Extension reflex test score (G1H-G93A transgenic mice [2]; 140th day after birth): 2.0 ± 0.0 | Extension reflex test score (G1H-G93A transgenic mice [2]; from the 130th day to 140th day after birth): 2.0±0.0
